Where a name gives a salt, the structure may show the parent alone.
Tests used:
[1] = test system: Hyperphosphorylated three repeat tau protein; experiment: In vivo detection in TBI mouse model, fluorescent imaging of retinas; details: intravenous administration, removed retinas, fluorescence microscope; wild type mice of comparable age: no immunostaining
Description: Model mice having a target protein, for example, an amyloid beta protein, or a phosphorylated tau protein, or an accumulated mass thereof, are administered compound 1, 2, or 3 intravenously. Retinas of the mice are removed and are mounted on slides. The retinas are washed with PBS 2 times for 5 minutes. A solution of 98% formic acid is added-5 minutes for antigen retrieval. The sampled are washed with distilled water-2 times for 5 minutes. The samples are equilibrated in 1×PBS for 15 minutes, then blocked with 10% goat/donkey serum in 1×PBST (depending on antibodies) for 1 hour. Samples are covered in foil, and washed with 1×PBS 3 times for 5 minutes each. Samples are stained with DAPI (300 nM or 100 ng/ml) in dark for 10 minutes, then tissues are washed 3×10 minutes with PBS. Antifade DAKO mounting medium is added, and coverslip and kept under foil until imaging.
Fluorescent imaging study of the samples is conducted on a Leica DMI 4000B microscope (Leica, Germany) equipped with a TCS SPE camera and Leica 10, 20 and 40× objectives. The following lasers are used to visualize fluorescent probes pertaining to DAPI (blue, nuclear stain), compound 1, 2, or 3 (green) and hyperphosphorylated tau (red): 408, 488 and 568 nm. Z-stacked images are taken at 40× at 0.5 μm increments to visualize the entire thickness of the tissue.

[2] = test system: amyloidogenic protein aggregates (e.g., Aβ, aSyn, TTR, and TDP43); experiment: In vitro characterization: binding to amyloidogenic protein aggregates; details: 4 μM compound 1, 5 μM aggregated protein; excitation 450 and 488 nm
Description: (§1) An in vitro study was carried out to characterize the fluorescent properties of compound 1 and its binding to amyloidogenic protein aggregates (e.g., Aβ, aSyn, TTR, and TDP43).
(§2) Compound 1 (4 μM) was prepared with or without 5 μM aggregated amyloidogenic protein in 1× phosphate-buffered saline (PBS). The emission spectra of compound 1 for each sample were collected according to the following protocol and the corresponding fold increases (compound 1+amyloid aggregate/compound 1) were calculated.
The following protocol was adopted in this study: • 1. Turn on the fluorimeter and let warm up for-30 minutes • 2. Allow aggregated amyloid protein (100 μM) solution to warm to room temperature • 3. Allow the compound 1 to warm to room temperature • 4. Prepare 1×PBS, pH 7.4. • 5. Prepare blank solution of DMSO/PBS (2.42 μl DMSO in 147.6 μl PBS, pH 7.4) • 6. Prepare a 250 μM solution of compound 1 in DMSO. Keep samples in the dark at room temperature. • 7. Prepare a 4 μM compound 1 solution with and without 5 μM aggregated amyloid protein • 8. Measure the emission scan of compound 1+aggregated amyloid protein solution using 1) 450 nm and 2) 488 nm as the excitation wavelength. Record the emission sweep from 450 nm-750 nm. Determine Amax from these spectra • 9. […] Export the data and plot relative fluorescence intensity (RFI) versus wavelength for emission spectra

[3] = test system: amyloid-like deposits in the retina; experiment: In vivo NHP imaging study, fundus autofluorescence (FAF); design: species or system non-human primates (monkeys); details: 5.13 mg/kg IV bolus
Description: An in vivo imaging study was carried out in non-human primates (NHP).
Compound 1 was administered to ketamine xylazine-anesthetized monkeys as a single bolus intravenous dose according to Table B. In-vivo fundus autofluorescence (FAF) images were collected prior to injection and at 2-, 5-, 15-, and 30-minutes post injection.
The compound 1 solution for injection (7 mg/mL compound 1 in 13 mM sodium bicarbonate buffered at pH 4.2) was prepared according to the following steps: • 1. Add 3 g sodium bicarbonate to 100 mL water (0.03 g/ml) • 2. Weigh out 4 g of PEG-400 (d. 1.13 g/mL) into an amber, or light isolated, 20 mL storage container containing a stir bar • 3. Add 200 mg of compound 1-HCl to the PEG-400 • 4. Add 20 mL water and stir until clear (~10 min) • 5. Add dropwise 0.6 ml of 0.03 g/ml sodium bicarbonate solution and stir 10 min (PH ~3.8) • 6. Add dropwise another 0.2 ml of the sodium bicarbonate solution and stir 10 min to adjust pH to 4.2 to provide a clear red solution • 7. Filter through 1 inch 0.22 μm diameter syringe filter to give a red clear solution into a presterilized sealed 20 mL amber glass vial • 8. Test the pH to confirm ~4.2 • 9. Transfer the remaining formulation into a 5 mL presterilized amber glass vial and place into a −20° C. freezer for analytical testing. The vial can be stored for up to 1 hour prior to use. • 10. Inject with a sterile syringe attached to a 0.22-micron PVDF membrane filter and needle. Use within 1 hour.

TTR = TTR (Homo sapiens, UniProt P02766); experiment: Fluorescence emission / binding of compound 1 to aggregated amyloidogenic protein (Table A); details: 4 μM compound 1, 5 μM aggregated protein, 1×PBS pH 7.4
Description: as §1, §2
(§3) The following protocol was adopted in this study: • 1. Turn on the fluorimeter and let warm up for-30 minutes • 2. Allow aggregated amyloid protein (100 μM) solution to warm to room temperature • 3. Allow the compound 1 to warm to room temperature • 4. Prepare 1×PBS, pH 7.4. • 5. Prepare blank solution of DMSO/PBS (2.42 μl DMSO in 147.6 μl PBS, pH 7.4) • 6. Prepare a 250 μM solution of compound 1 in DMSO. Keep samples in the dark at room temperature. • 7. Prepare a 4 μM compound 1 solution with and without 5 μM aggregated amyloid protein • 8. Measure the emission scan of compound 1+aggregated amyloid protein solution using 1) 450 nm and 2) 488 nm as the excitation wavelength. Record the emission sweep from 450 nm-750 nm. Determine Amax from these spectra • 9. Repeat step 8 for 4 μM compound 1 without amyloid protein • 10. Export the data and plot relative fluorescence intensity (RFI) versus wavelength for emission spectra

Aβ = Aβ (Homo sapiens, UniProt P05067); experiment: as above; details: 4 μM compound 1, 5 μM aggregated protein, 1×PBS pH 7.4
Description: as §1, §2, §3

TDP43 = TDP43 (Homo sapiens, UniProt Q13148); experiment: as above; details: 4 μM compound 1, 5 μM aggregated protein, 1×PBS pH 7.4
Description: as §1, §2, §3

aSyn = aSyn (Homo sapiens, UniProt P37840); experiment: as above; details: 4 μM compound 1, 5 μM aggregated protein, 1×PBS pH 7.4
Description: as §1, §2, §3

[4] = test system: aggregates in ALS ex vivo retina cadaver tissue; experiment: Ex vivo human cadaver imaging study, flat mounted ALS retinas stained with compound 1; details: 60 μM compound 1, 30 minutes at room temperature, confocal microscope
Description: An ex vivo human cadaver imaging study was carried out using compound 1. Flat mounted retinas extracted from ALS (amyotrophic lateral sclerosis) human cadavers were stained with compound 1 (60 μM) and images were collected.
The following staining protocol was adopted in this study:
• (i) Fix tissue in room temperature 4% PFA for 20 minutes, wash, permeabilize, and block (5% goat serum in PBST for 1 hour) • (ii) Incubate with 60 μM compound 1 in 1×PBS for 30 minutes at room temperature • (iii) Wash with PBS (3 times for 5 minutes) • (iv) Mount tissue using antifade Prolong Glass mounting media. • (v) Image with confocal microscope • (vi) Add lambda scanning imaging protocol to determine the emission peak.

[5] = FAF images at 2, 5, 15 and 30 minutes post injection

Aβ, sequence (P05067 672-713 limits assumed): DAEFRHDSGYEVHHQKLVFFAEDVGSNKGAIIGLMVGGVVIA
TDP43, sequence (Q13148 whole entry): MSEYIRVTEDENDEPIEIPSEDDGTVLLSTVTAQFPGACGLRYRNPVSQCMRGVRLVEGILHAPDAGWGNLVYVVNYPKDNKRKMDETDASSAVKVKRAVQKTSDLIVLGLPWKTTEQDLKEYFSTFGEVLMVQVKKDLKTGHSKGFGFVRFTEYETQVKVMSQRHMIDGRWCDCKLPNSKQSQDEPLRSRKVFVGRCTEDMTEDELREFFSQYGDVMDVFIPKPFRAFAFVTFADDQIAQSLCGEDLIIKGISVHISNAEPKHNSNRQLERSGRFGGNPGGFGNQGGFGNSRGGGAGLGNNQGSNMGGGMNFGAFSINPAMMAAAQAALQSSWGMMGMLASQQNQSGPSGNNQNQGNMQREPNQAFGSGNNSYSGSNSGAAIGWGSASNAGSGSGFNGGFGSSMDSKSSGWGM

N#C/C(=C\c1ccc2cc(N3CCCCC3)ccc2c1)C(=O)NCCOCCOCCOC(=O)CN [Compound 1, (E)-2-(2-(2-(2-cyano-3-(6-(piperidin-1-yl)naphthalen-2-yl)acrylamido)ethoxy)ethoxy)ethyl glycinate hydrochloride salt]
detection of hyperphosphorylated three repeat tau in the retina (fluorescent signal) [1]: Hyperphosphorylated three repeat tau protein is detected in the retina, producing a detectable fluorescent signal
binding to the aggregated amyloidogenic proteins in vitro [2]: successfully bound to the aggregated amyloidogenic proteins in vitro
hyperfluorescence in vasculature and retinal tissue following injection [3, 5]: hyperfluorescence was observed within minutes in the vasculature following injection and subsequently in the retinal tissue
labeling of amyloid-like deposits in the retina [3, 5]: labeled amyloid-like deposits in the retina
clearance of signal from the vascular system ([3]; FAF images up to 30 minutes post injection): signal cleared quickly from the vascular system
Fold (fold increase, compound 1+amyloid aggregate/compound 1) (TTR; excitation 450 nm): 11.5 fold
λmax (TTR; excitation 450 nm): 543 nm
Fold (fold increase, compound 1+amyloid aggregate/compound 1) (TTR; excitation 488 nm): 5.9 fold
λmax (TTR; excitation 488 nm): 549 nm
Fold (fold increase, compound 1+amyloid aggregate/compound 1) (Aβ; excitation 450 nm): 25.3 fold
λmax (Aβ; excitation 450 nm): 550 nm
Fold (fold increase, compound 1+amyloid aggregate/compound 1) (Aβ; excitation 488 nm): 17.9 fold
λmax (Aβ; excitation 488 nm): 555 nm
Fold (fold increase, compound 1+amyloid aggregate/compound 1) (TDP43; excitation 450 nm): 6.1 fold
λmax (TDP43; excitation 450 nm): 544 nm
Fold (fold increase, compound 1+amyloid aggregate/compound 1) (TDP43; excitation 488 nm): 4.70 fold
λmax (TDP43; excitation 488 nm): 529 nm
Fold (fold increase, compound 1+amyloid aggregate/compound 1) (aSyn; excitation 450 nm): 174.1 fold
λmax (aSyn; excitation 450 nm): 530 nm
Fold (fold increase, compound 1+amyloid aggregate/compound 1) (aSyn; excitation 488 nm): 110.8 fold
λmax (aSyn; excitation 488 nm): 538 nm
labeling of aggregates in ALS retina [4]: labeled aggregates in ALS ex vivo retina cadaver tissue

CC(C)(C)OC(=O)NCC(=O)OCCOCCOCCNC(=O)/C(C#N)=C/c1ccc2cc(N3CCCCC3)ccc2c1 [Compound 2, (E)-2-(2-(2-(2-cyano-3-(6-(piperidin-1-yl)naphthalen-2-yl)acrylamido)ethoxy)ethoxy)ethyl (tert-butoxycarbonyl)glycinate]
detection of hyperphosphorylated three repeat tau in the retina (fluorescent signal) [1]: Hyperphosphorylated three repeat tau protein is detected in the retina, producing a detectable fluorescent signal

C[C@H](N)C(=O)OCCOCCOCCNC(=O)/C(C#N)=C/c1ccc2cc(N3CCCCC3)ccc2c1 [Compound 3, (E)-2-(2-(2-(2-cyano-3-(6-(piperidin-1-yl)naphthalen-2-yl)acrylamido)ethoxy)ethoxy)ethyl L-alaninate hydrochloride salt]
detection of hyperphosphorylated three repeat tau in the retina (fluorescent signal) [1]: Hyperphosphorylated three repeat tau protein is detected in the retina, producing a detectable fluorescent signal
